This passage reports mortality results from patent publication US20110184188A1, “Insecticidal Benzenedicarboxamide Derivative” (priority 2008, published 2011).

SMILES strings stand for the structures.

Format in all cases: in vivo
Experiment [1] relates to Spodoptera litura third instar larvae. The experiment can be described thus: Test to larva of Spodoptera litura (sweet potato leaf dip). The following applies: foliar, 168 h; Spodoptera litura third instar larvae, active ingredient concentration 20 ppm, seven days later, 25° C.; read-out: insect mortality. On the procedure: Test to Larva of Spodoptera litura
Solvent: dimethylformamide 3 parts by weight Emulsifier: polyoxyethylene alkyl phenyl ether 1 part by weight
In order to prepare preparations of suitable active compounds, 1 part by weight of each of the active compounds was blended with the above amount of the solvent containing the above amount of the emulsifier, and the resulting mixture was diluted to a prescribed concentration with water.
Leaves of sweet potato were immersed in the tested liquid medication of a prescribed concentration diluted with water. After air drying of the liquid medication, the leaves were put into a petri dish of a diameter of 9 cm, and 10 Spodoptera litura third instar larvae were released in the petri dish, and the petri dish was placed in a constant temperature room of 25° C. Two days later and four days later, leaves of sweet potato were added. Seven days later, the number of dead insects was examined, and insect mortality was calculated.
In the present test, results of 2 petri dishes for each compound were averaged.

The test system of another experiment is Lucilia cuprina. The experiment can be described thus: Test to Lucilia cuprina (larvae on horse minced meat). The following applies: effective ingredient concentration 100 ppm, read-out: insecticide activity (mortality). The protocol: (§1) Solvent: dimethylsulfoxide
(§2) In order to prepare preparations of suitable active compounds, 10 mg of each of the active compounds was dissolved into 0.5 ml of the above solvent, and the resulting mixture was diluted to a prescribed concentration with water.
About 20 to 30 larvae of Lucilia cuprina were put into the test tube in which 1 cm^3 of horse minced meat and 0.5 ml of the aqueous solution of the compound prepared in the above were put. After a fixed time passed, the mortality of the Lucilia cuprina was obtained. 100% mortality means that all the individuals were dead, and 0% mortality means that all the individuals were alive.

The subject of a further experiment is Musca domestica. The experiment can be described thus: Test to Musca domestica (adults, sugar sponge). The conditions noted are these: effective ingredient concentration 100 ppm, read-out: insecticide activity (mortality). On the procedure: as §1, §2
As a preparative stage of the test, a fixed size of sponge was soaked in a mixture of sugar and the compound aqueous solution prepared in the above, and was placed in a test container. Ten adults of Musca domestica were put into the container, and the container was closed with a cap having ventilation holes. After a fixed time passed, a mortality rate of Musca domestica was acquired. 100% mortality means that all the individuals were dead, and 0% mortality means that all the individuals were alive.

By mortality is commonly meant the share of the test organisms that died. For `CSC[C@H](C)NC(=O)c1c(Br)cccc1C(=O)Nc1ccc(Cn2cc(C(F)(F)C(F)(F)F)c(C(F)(F)C(F)(F)F)n2)cc1C` [13-132, N^1-(4-{[3,4-bis(pentafluoroethyl)-1H-pyrazol-1-yl]methyl}-2-methylphenyl)-3-bromo-N^2-[(1S)-1-methyl-2-(methylthio)ethyl]-1,2-benzenedicarboxamide], the mortality at 20 ppm in experiment [1] was 100%. In addition, the values for the mortality at 100 ppm in the experiment with Lucilia cuprina and in the experiment on Musca domestica were at least 80% and at least 70%, respectively.
For the compound `Cc1cc(Cn2cc(C(F)(F)C(F)(F)F)c(C(F)(F)C(F)(F)F)n2)ccc1NC(=O)c1cccc(Br)c1C(=O)N[C@@H](C)C[S+](C)[O-]` (stereo partly drawn) [13-137, N^1-(4-{[3,4-bis(pentafluoroethyl)-1H-pyrazol-1-yl]methyl}-2-methylphenyl)-3-bromo-N^2-[(1S)-1-methyl-2-(methylsulfinyl)ethyl]-1,2-benzenedicarboxamide], in experiment [1], the mortality at 20 ppm came out at 100%. In addition, the mortality at 100 ppm in the experiment on Lucilia cuprina was at least 80%; in the experiment with Musca domestica it was at least 70%.
